Measurements taken from patent US20050142169A1, “Palatability enhanced composition and method for animal consumption” (priority 2003, published 2005).

Legend:
cats = assay: two-bowl preference test, Example 5 (Feline w/d); assay type: in vivo, cat; conditions: dry wt. of kibble
Source text: Finally, a commercial dry palatant enhancer (1.4% dry weight basis) was topically applied to the dry kibbles to complete the test composition.

dogs = assay: two-bowl preference test, Example 4 (Canine w/d, 2.4% test flavor); assay type: in vivo, dog; conditions: dry wt. of kibble, test flavor 2.4%
Procedure: The experiment comprised mixing various amounts of 2,5-dimethyl-4-hydroxy-3(2H)-furanone with a commercial liquid palatant enhancer as a carrier to form a test flavor. Each of the test flavors (2.4%, dry weight basis) was topically applied to a dry, commercial dog food (Canine w/d from Hill's Pet Nutrition, Inc.) after application of a commercial dry palatant enhancer in choice white grease (0.6%, dry weight basis) to form a test composition. […] The control compositions were prepared by topically applying the commercial liquid palatant enhancer (2.4% dry weight basis) to the dry, commercial dog food (Canine w/d) after application of a commercial dry palatant enhancer in choice white grease (0.6%, dry weight basis). Palatability was determined by comparing the test composition and the control composition in a standard two-bowl preference test over two days with 20 dogs as described in Example 1.

[1] = Exp. No. 7, second set of experiments, 5.0 ppm
[2] = Exp. No. 8, second set of experiments, 10.0 ppm
[3] = Exp. No. 9, second set of experiments, 20.0 ppm
[4] = Exp. No. 10, second set of experiments, 30.0 ppm
[5] = Exp. No. 11, second set of experiments, 40.0 ppm
[6] = Exp. No. 12, second set of experiments, 50.0 ppm
[7] = Exp. No. 6, second set of experiments, 87.1 ppm
[8] = Exp. No. 7, second set of experiments, 130.5 ppm
[9] = Exp. No. 8, second set of experiments, 174.0 ppm
[10] = Exp. No. 9, second set of experiments, 217.5 ppm
[11] = Exp. No. 10, second set of experiments, 282.8 ppm

**Q.** CC1=C(O)C(=O)C(C)O1 (stereo not shown) [2,5-dimethyl-4-hydroxy-3(2H)-furanone] was tested. Which “Intake Ratio” value (cats; Exp. No. 1, 5.0 ppm) did it give?
**A.** Its value is 0.7676.

**Q.** What about the “Preference (%) control composition” value (cats; Exp. No. 1, 5.0 ppm) of the same molecule?
**A.** Its value is 8.0%.

**Q.** What about the “Preference (%) test composition” value (cats; Exp. No. 1, 5.0 ppm) of the same molecule?
**A.** The value was 92.0%.

**Q.** And the “Status (vs. control)” value (cats; Exp. No. 1, 5.0 ppm)?
**A.** Its value is “Win”.

**Q.** And the “Intake Ratio” value (cats; Exp. No. 2, 10.0 ppm)?
**A.** The value was 0.8135.

**Q.** And the “Preference (%) control composition” value (cats; Exp. No. 2, 10.0 ppm)?
**A.** Its value is 8.0%.

**Q.** And the “Preference (%) test composition” value (cats; Exp. No. 2, 10.0 ppm)?
**A.** The value was 88.0%.

**Q.** And the “Status (vs. control)” value (cats; Exp. No. 2, 10.0 ppm)?
**A.** Its value is “Win”.

**Q.** What about the “Intake Ratio” value (cats; Exp. No. 3, 20.0 ppm) of the same molecule?
**A.** The value was 0.8151.

**Q.** And the “Preference (%) control composition” value (cats; Exp. No. 3, 20.0 ppm)?
**A.** Its value is 12.0%.

**Q.** And the “Preference (%) test composition” value (cats; Exp. No. 3, 20.0 ppm)?
**A.** The value was 88.0%.

**Q.** And the “Status (vs. control)” value (cats; Exp. No. 3, 20.0 ppm)?
**A.** Its value is “Win”.

**Q.** What about the “Intake Ratio” value (cats; Exp. No. 4, 30.0 ppm) of the same molecule?
**A.** The value was 0.7546.

**Q.** What about the “Preference (%) control composition” value (cats; Exp. No. 4, 30.0 ppm) of the same molecule?
**A.** The value was 20.0%.

**Q.** And the “Preference (%) test composition” value (cats; Exp. No. 4, 30.0 ppm)?
**A.** The value was 80.0%.

**Q.** And the “Status (vs. control)” value (cats; Exp. No. 4, 30.0 ppm)?
**A.** The value was “Win”.

**Q.** And the “Intake Ratio” value (cats; Exp. No. 5, 40.0 ppm)?
**A.** The value was 0.7626.

**Q.** And the “Preference (%) control composition” value (cats; Exp. No. 5, 40.0 ppm)?
**A.** Its value is 12.0%.

**Q.** What about the “Preference (%) test composition” value (cats; Exp. No. 5, 40.0 ppm) of the same molecule?
**A.** The value was 88.0%.

**Q.** And the “Status (vs. control)” value (cats; Exp. No. 5, 40.0 ppm)?
**A.** Its value is “Win”.

**Q.** What about the “Intake Ratio” value (cats; Exp. No. 6, 50.0 ppm) of the same molecule?
**A.** The value was 0.8505.

**Q.** And the “Preference (%) control composition” value (cats; Exp. No. 6, 50.0 ppm)?
**A.** The value was 8.0%.

**Q.** What about the “Preference (%) test composition” value (cats; Exp. No. 6, 50.0 ppm) of the same molecule?
**A.** The value was 92.0%.

**Q.** And the “Status (vs. control)” value (cats; Exp. No. 6, 50.0 ppm)?
**A.** The value was “Win”.

**Q.** And the “Intake Ratio” value (cats; [1])?
**A.** Its value is 0.9385.

**Q.** And the “Preference (%) control composition” value (cats; [1])?
**A.** Its value is 0.0%.

**Q.** What about the “Preference (%) test composition” value (cats; [1]) of the same molecule?
**A.** Its value is 100.0%.

**Q.** And the “Status (vs. control)” value (cats; [1])?
**A.** The value was “Win”.

**Q.** What about the “Intake Ratio” value (cats; [2]) of the same molecule?
**A.** Its value is 0.7990.

**Q.** What about the “Preference (%) control composition” value (cats; [2]) of the same molecule?
**A.** Its value is 12.0%.

**Q.** What about the “Preference (%) test composition” value (cats; [2]) of the same molecule?
**A.** The value was 84.0%.

**Q.** What about the “Status (vs. control)” value (cats; [2]) of the same molecule?
**A.** Its value is “Win”.

**Q.** What about the “Intake Ratio” value (cats; [3]) of the same molecule?
**A.** The value was 0.8128.

**Q.** What about the “Preference (%) control composition” value (cats; [3]) of the same molecule?
**A.** The value was 8.0%.

**Q.** What about the “Preference (%) test composition” value (cats; [3]) of the same molecule?
**A.** Its value is 92.0%.

**Q.** What about the “Status (vs. control)” value (cats; [3]) of the same molecule?
**A.** Its value is “Win”.

**Q.** What about the “Intake Ratio” value (cats; [4]) of the same molecule?
**A.** Its value is 0.8912.

**Q.** What about the “Preference (%) control composition” value (cats; [4]) of the same molecule?
**A.** Its value is 4.0%.

**Q.** What about the “Preference (%) test composition” value (cats; [4]) of the same molecule?
**A.** Its value is 92.0%.

**Q.** What about the “Status (vs. control)” value (cats; [4]) of the same molecule?
**A.** Its value is “Win”.

**Q.** What about the “Intake Ratio” value (cats; [5]) of the same molecule?
**A.** Its value is 0.8012.

**Q.** And the “Preference (%) control composition” value (cats; [5])?
**A.** The value was 16.0%.

**Q.** What about the “Preference (%) test composition” value (cats; [5]) of the same molecule?
**A.** The value was 80.0%.

**Q.** And the “Status (vs. control)” value (cats; [5])?
**A.** The value was “Win”.

**Q.** What about the “Intake Ratio” value (cats; [6]) of the same molecule?
**A.** Its value is 0.8339.

**Q.** What about the “Preference (%) control composition” value (cats; [6]) of the same molecule?
**A.** Its value is 12.5%.

**Q.** What about the “Preference (%) test composition” value (cats; [6]) of the same molecule?
**A.** Its value is 87.5%.

**Q.** And the “Status (vs. control)” value (cats; [6])?
**A.** The value was “Win”.

**Q.** And the “Intake Ratio” value (dogs; Exp. No. 1, 87.1 ppm)?
**A.** The value was 0.6939.

**Q.** And the “Preference (%) control composition” value (dogs; Exp. No. 1, 87.1 ppm)?
**A.** The value was 16.0%.

**Q.** And the “Preference (%) test composition” value (dogs; Exp. No. 1, 87.1 ppm)?
**A.** The value was 76.0%.

**Q.** What about the “Status (vs. control)” value (dogs; Exp. No. 1, 87.1 ppm) of the same molecule?
**A.** Its value is “Win”.

**Q.** What about the “Intake Ratio” value (dogs; Exp. No. 2, 130.5 ppm) of the same molecule?
**A.** The value was 0.6616.

**Q.** And the “Preference (%) control composition” value (dogs; Exp. No. 2, 130.5 ppm)?
**A.** Its value is 28.0%.

**Q.** What about the “Preference (%) test composition” value (dogs; Exp. No. 2, 130.5 ppm) of the same molecule?
**A.** Its value is 72.0%.

**Q.** What about the “Status (vs. control)” value (dogs; Exp. No. 2, 130.5 ppm) of the same molecule?
**A.** Its value is “Win”.

**Q.** And the “Intake Ratio” value (dogs; Exp. No. 3, 174.0 ppm)?
**A.** Its value is 0.6947.

**Q.** What about the “Preference (%) control composition” value (dogs; Exp. No. 3, 174.0 ppm) of the same molecule?
**A.** The value was 24.0%.

**Q.** And the “Preference (%) test composition” value (dogs; Exp. No. 3, 174.0 ppm)?
**A.** Its value is 76.0%.

**Q.** What about the “Status (vs. control)” value (dogs; Exp. No. 3, 174.0 ppm) of the same molecule?
**A.** The value was “Win”.

**Q.** And the “Intake Ratio” value (dogs; Exp. No. 4, 217.5 ppm)?
**A.** Its value is 0.7773.

**Q.** What about the “Preference (%) control composition” value (dogs; Exp. No. 4, 217.5 ppm) of the same molecule?
**A.** The value was 8.0%.

**Q.** And the “Preference (%) test composition” value (dogs; Exp. No. 4, 217.5 ppm)?
**A.** Its value is 92.0%.

**Q.** What about the “Status (vs. control)” value (dogs; Exp. No. 4, 217.5 ppm) of the same molecule?
**A.** The value was “Win”.

**Q.** What about the “Intake Ratio” value (dogs; Exp. No. 5, 282.8 ppm) of the same molecule?
**A.** The value was 0.8079.

**Q.** What about the “Preference (%) control composition” value (dogs; Exp. No. 5, 282.8 ppm) of the same molecule?
**A.** The value was 8.3%.

**Q.** And the “Preference (%) test composition” value (dogs; Exp. No. 5, 282.8 ppm)?
**A.** Its value is 87.5%.

**Q.** What about the “Status (vs. control)” value (dogs; Exp. No. 5, 282.8 ppm) of the same molecule?
**A.** The value was “Win”.

**Q.** What about the “Intake Ratio” value (dogs; [7]) of the same molecule?
**A.** Its value is 0.6058.

**Q.** What about the “Preference (%) control composition” value (dogs; [7]) of the same molecule?
**A.** Its value is 40.0%.

**Q.** What about the “Preference (%) test composition” value (dogs; [7]) of the same molecule?
**A.** The value was 60.0%.

**Q.** And the “Status (vs. control)” value (dogs; [7])?
**A.** The value was “Win”.

**Q.** What about the “Intake Ratio” value (dogs; [8]) of the same molecule?
**A.** The value was 0.6857.

**Q.** And the “Preference (%) control composition” value (dogs; [8])?
**A.** The value was 24.0%.

**Q.** And the “Preference (%) test composition” value (dogs; [8])?
**A.** The value was 76.0%.

**Q.** And the “Status (vs. control)” value (dogs; [8])?
**A.** Its value is “Win”.

**Q.** What about the “Intake Ratio” value (dogs; [9]) of the same molecule?
**A.** Its value is 0.5568.

**Q.** And the “Preference (%) control composition” value (dogs; [9])?
**A.** Its value is 40.0%.

**Q.** What about the “Preference (%) test composition” value (dogs; [9]) of the same molecule?
**A.** The value was 56.0%.

**Q.** And the “Status (vs. control)” value (dogs; [9])?
**A.** Its value is “Parity”.

**Q.** What about the “Intake Ratio” value (dogs; [10]) of the same molecule?
**A.** Its value is 0.5453.

**Q.** What about the “Preference (%) control composition” value (dogs; [10]) of the same molecule?
**A.** The value was 40.0%.

**Q.** What about the “Preference (%) test composition” value (dogs; [10]) of the same molecule?
**A.** Its value is 60.0%.

**Q.** What about the “Status (vs. control)” value (dogs; [10]) of the same molecule?
**A.** The value was “Parity”.

**Q.** And the “Intake Ratio” value (dogs; [11])?
**A.** The value was 0.7429.

**Q.** What about the “Preference (%) control composition” value (dogs; [11]) of the same molecule?
**A.** The value was 16.0%.

**Q.** And the “Preference (%) test composition” value (dogs; [11])?
**A.** The value was 84.0%.

**Q.** And the “Status (vs. control)” value (dogs; [11])?
**A.** Its value is “Win”.
